Assay results reported in patent US6869958B2, “Fused tetrahydropyridine derivatives as matrix metalloproteinase inhibitors” (Warner-Lambert Company, priority 2002, dated 2005).

Molecular target: T1, hMMP-13CD (Homo sapiens, UniProt P45452)
T1 construct: a human MMP-13 catalytic domain (“hMMP-13CD”)
Test: Inhibition of MMP-13 catalytic domain (IC50)
Assay type: biochemical
Details: human MMP-13 catalytic domain
Method: Thiopeptolide substrates show virtually no decomposition or hydrolysis at or below neutral pH in the absence of a matrix metalloproteinase enzyme. A typical thiopeptolide substrate commonly utilized for assays is Ac-Pro-Leu-Gly-thioester-Leu-Leu-Gly-OEt. A 100 μL assay mixture will contain 50 mM of N-2-hydroxyethylpiperazine-N′-2-ethanesulfonic acid buffer (“HEPES,” pH 7.0), 10 mM CaCl2, 100 μM thiopeptolide substrate, and 1 mM 5,5′-dithio-bis-(2-nitro-benzoic acid) (DTNB). The thiopeptolide substrate concentration may be varied, for example from 10 to 800 μM to obtain Km and Kcat values. The change in absorbance at 405 nm is monitored on a Thermo Max microplate reader (molecular Devices, Menlo Park, Calif.) at room temperature (22° C.). […]
Some representative compounds of Formula I have been evaluated for their ability to inhibit MMP-13. Inhibitor activity versus other MMPs with the compounds may be determined using, for example, MMP-1FL, which refers to full length interstitial collagenase; MMP-2FL, which refers to full length Gelatinase A; MMP-3CD, which refers to the catalytic domain of stromelysin; MMP-7FL, which refers to full length matrilysin; MMP-9FL, which refers to full length Gelatinase B; MMP-13CD, which refers to the catalytic domain of collagenase 3; and MMP-14CD, which refers to the catalytic domain of MMP-14. […]

IC50: > 50 µM
SMILES: O=C(O)c1ccc(Cn2ccc3ccc(C#CCn4ccnn4)cc3c2=O)cc1 [4-[1-oxo-7-(3-[1,2,3]triazol-1-ylprop-1-ynyl)-1H-isoquinolin-2-ylmethyl]benzoic acid]
